Reference: patent US8183287B2, “Pharmaceutical formulations and compositions of a selective antagonist of either CXCR2 or both CXCR1 and CXCR2 and methods of using the same for treating inflammatory disorders” (Schering Corporation, priority 2006, dated 2012)
Read-outs that look alike come from different tables or passages of the source.

Columns and labels:
[1] = tested on: histological changes in arthritic joints; assay: histological changes in arthritic joints, prolonged treatment; type: in vivo; conditions: rats
Text: (§1) WO 02/083624 describes this compound (as Examples 360.31 and 405), process of making the same, as well as treatment of chemokine-related diseases and cancer using the same. Likewise, WO 03/080053 describes the treatment of chemokine-related diseases using this compound.

[2] = tested on: carrageenan-induced paw edema; assay: carrageenan-induced paw edema; type: in vivo; conditions: rats, compared with NSAIDs
Text: as §1

[3] = tested on: neutrophil recruitment to the pleural cavities; assay: neutrophil recruitment to the pleural cavities in response to challenge, oral dosing; type: in vivo; conditions: orally administered
Text: as §1

[4] = clinical study (ii): single-dose 30 mg, fasted or fed subjects, Formulation 1 capsules; type: in vivo, human; conditions: single oral dose 30 mg; for Cmax / AUC / half-life / Tmax: both sexes, human, plasma, po, 30 mg; for Cmax / AUC / half-life / Tmax / Tf Mean: healthy subjects; for half-life: read-out: t1/2 Mean; for Tmax: read-out: Tmax Median
[5] = clinical study in subjects with moderate to severe COPD; type: in vivo, human; conditions: subjects with moderate to severe COPD, 3, 10, 30 mg, 12 weeks
Method: This study, illustrated schematically in FIG. 4, is a double-blind, placebo-controlled, randomized, two-part study in subjects with moderate to severe COPD. Part 1 is a double-blind, placebo-controlled, randomized, rising-dose study consisting of four treatment groups enrolled in three cohorts (FIG. 4A). The treatment period for each cohort is 12 weeks in duration. […] After completing the safety analyses for Part 1 for Cohorts 1-3, Part 2 is conducted as detailed below. Part 2 is a double-blind, placebo-controlled, randomized, parallel group study consisting of four treatment groups enrolled as one cohort (FIG. 4B). The treatment period for Cohort 4 is 12 weeks in duration. […] Efficacy analyses are based solely on data collected from Part 2, Cohort 4 wherein the primary efficacy parameters measured are changes from Baseline in FEV1 and changes from Baseline in SCDS, both examined as longitudinal averages over the 12-week treatment period. […]

## CC[C@@H](Nc1c(Nc2cccc(C(=O)N(C)C)c2O)c(=O)c1=O)c1ccc(C)o1 [Compound I]
[1]
  histological changes in arthritic joints: blocks
[2]
  ability to inhibit carrageenan-induced paw edema: compares very favorably with NSAIDs
[3]; mice
  neutrophil recruitment to the pleural cavities: effectively blocks
[3]; rats
  neutrophil recruitment to the pleural cavities: effectively blocks
[4]; fasted
  Cmax: 147 ng/mL
  Tmax: 0.75 h
  Tf Mean: 40 h
[4]; fasted, n = 10, read-out: AUC(I) Mean
  AUC: 563 ng·h/mL
[4]; fasted, n = 10
  half-life: 20.8 h
[4]; fasted, read-out: AUC (tf) Mean
  AUC: 484 ng·h/mL
[4]; fed
  Cmax: 122 ng/mL
  Tmax: 2 h
  Tf Mean: 32.3 h
[4]; fed, n = 7, read-out: AUC(I) Mean
  AUC: 572 ng·h/mL
[4]; fed, n = 7
  half-life: 22.9 h
[4]; fed, read-out: AUC (tf) Mean
  AUC: 489 ng·h/mL
[4]
  mean Cmax with food lower than Compound I alone: 17%
[5]
  sputum neutrophil and peripheral blood neutrophils: reduction in sputum neutrophil and peripheral blood neutrophils
